Measurements published in patent US20250215029A1 (Recludix Pharma, Inc., priority 2022, published 2025).
Like-named read-outs stand apart in the source and are kept apart here.

Tests used:
[1] = target: T1, Recombinant STAT3 protein (STAT3 (G127-I722)) (Homo sapiens, UniProt P40763); assay: STAT3 Fluorescence Polarization (FP) Assay; assay type: binding; details: probe 5-FAM-GpYLPQTV-NH2 2 nM, 45-minute incubation
T1 construct: Recombinant STAT3 protein (STAT3 (G127-I722))
Procedure, shortened: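 Displacement of a fluorescent phosphotyrosine peptide (5-FAM-GpYLPQTV-NH2, 2 nM) from 25 nM recombinant STAT3 G127-I722 was monitored by FP after 45 min at room temperature.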

[2] = target: T2, Recombinant STAT6 protein (STAT6 (W123-T658)) (Homo sapiens, UniProt P42226); assay: STAT6 Fluorescence Polarization (FP) Assay; assay type: binding; details: probe 5-FAM-Ap[…]-NH2 2 nM, 45-minute incubation
T2 construct: Recombinant STAT6 protein (STAT6 (W123-T658))
T2 sequence (P42226 123-658): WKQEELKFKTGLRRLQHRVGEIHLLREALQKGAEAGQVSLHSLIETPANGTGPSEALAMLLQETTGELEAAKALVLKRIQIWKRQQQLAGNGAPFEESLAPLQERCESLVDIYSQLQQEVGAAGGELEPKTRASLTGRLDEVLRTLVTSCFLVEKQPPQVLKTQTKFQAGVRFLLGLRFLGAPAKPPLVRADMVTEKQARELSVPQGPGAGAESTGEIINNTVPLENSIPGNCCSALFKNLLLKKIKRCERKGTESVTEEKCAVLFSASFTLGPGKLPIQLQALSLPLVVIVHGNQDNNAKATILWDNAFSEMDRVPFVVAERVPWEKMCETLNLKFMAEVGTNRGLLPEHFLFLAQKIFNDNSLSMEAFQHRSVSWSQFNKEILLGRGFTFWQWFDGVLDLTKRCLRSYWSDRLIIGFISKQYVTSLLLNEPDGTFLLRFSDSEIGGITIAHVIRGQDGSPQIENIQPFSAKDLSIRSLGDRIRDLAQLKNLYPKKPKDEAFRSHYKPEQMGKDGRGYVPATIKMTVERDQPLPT
Procedure, shortened: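 STAT6 (W123-T658) at 250 nM was mixed with 2 nM 5-FAM-labeled phosphotyrosine peptide probe in HEPES pH 7.4 buffer with NaCl, EDTA, Tween 20 and DTT, then added to serially diluted compounds at 1% DMSO final. Polarization was read after 45 min at room temperature; IC50 came from nonlinear regression of mP versus log concentration.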

[3] = STAT3 25 nM, read-out: STAT3 (FP assay IC50)
[4] = STAT6 250 nM, read-out: STAT6 (FP assay IC50)
[5] = STAT3 (G127-I722) 25 nM, read-out: STAT3 (FP assay IC50 class)
[6] = STAT6 (W123-T658) 250 nM, read-out: STAT6 (FP assay IC50 class)

T1 sequence (P40763 127-722): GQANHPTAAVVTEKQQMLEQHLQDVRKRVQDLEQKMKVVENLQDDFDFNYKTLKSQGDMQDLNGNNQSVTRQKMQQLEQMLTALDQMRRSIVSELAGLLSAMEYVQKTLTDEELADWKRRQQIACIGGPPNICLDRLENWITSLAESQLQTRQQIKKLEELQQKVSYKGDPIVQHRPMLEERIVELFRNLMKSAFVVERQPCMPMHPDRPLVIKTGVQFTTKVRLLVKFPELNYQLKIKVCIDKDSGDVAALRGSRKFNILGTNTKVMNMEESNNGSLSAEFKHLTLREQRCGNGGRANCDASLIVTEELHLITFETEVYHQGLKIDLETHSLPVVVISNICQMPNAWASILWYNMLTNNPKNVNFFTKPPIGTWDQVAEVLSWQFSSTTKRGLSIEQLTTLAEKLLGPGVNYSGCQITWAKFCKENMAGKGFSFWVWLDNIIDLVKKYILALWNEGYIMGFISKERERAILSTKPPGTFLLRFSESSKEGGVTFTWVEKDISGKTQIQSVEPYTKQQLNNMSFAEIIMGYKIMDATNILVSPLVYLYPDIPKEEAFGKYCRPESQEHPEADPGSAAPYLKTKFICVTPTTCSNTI

| SMILES | IC50 [1, 3] [µM] | IC50 [2, 4] [µM] | IC50 [1, 5] [µM] | IC50 [2, 6] [µM] |
| --- | --- | --- | --- | --- |
| O=C(N[C@H]1CCC[C@H]2CC[C@@H](C(=O)N3CC(c4nc5ccccc5[nH]4)C3)N2C1=O)c1cc2cc(C(F)(F)P(=O)(O)O)ccc2s1 [Compound 43, ((2-(((3S,6S,9aS)-3-(3-(1H-benzo[d]imidazol-2-yl)azetidine-1-carbonyl)-5-oxooctahydro-1H-pyrrolo[1,2-a]azepin-6-yl)carbamoyl)benzo[b]thiophen-5-yl)difluoromethyl) phosphonic acid] | < 0.1 | 0.3 to 3 | – | – |
| O=C(N[C@H]1CCCC[C@H]2CC[C@@H](C(=O)NC(CO)Cc3ccccc3)N2C1=O)c1cc2cc(C(F)(F)P(=O)(O)O)ccc2s1 (stereo partly drawn) [Compound 98, (difluoro(2-(((3S,6S,10aS)-3-((1-hydroxy-3-phenylpropan-2-yl)carbamoyl)-5-oxodecahydropyrrolo [1,2-a]azocin-6-yl)carbamoyl)benzo[b]thiophen-5-yl)methyl) phosphonic acid] | 0.1 to 1 | 3 to 30 | – | – |
| O=C(N[C@H]1CCC[C@H]2CC[C@@H](C(=O)N3CC(c4cnccc4C4OCCO4)C3)N2C1=O)c1cc2cc(CP(=O)(O)O)ccc2s1 [Compound 546, ((2-(((3S,6S,9aS)-3-(3-(4-(1,3-dioxolan-2-yl)pyridin-3-yl)azetidine-1-carbonyl)-5-oxooctahydro-1H-pyrrolo[1,2-a]azepin-6-yl)carbamoyl)benzo[b]thiophen-5-yl)methyl)phosphonic acid] | – | – | 1 to 10 | 3 to 30 |
| O=C(N[C@H]1CCC[C@H]2CC[C@@H](C(=O)N3CC(C4=CCCOC4)C3)N2C1=O)c1cc2cc(CP(=O)(O)O)ccc2s1 [Compound 672, ((2-(((3S,6S,9aS)-3-(3-(5,6-dihydro-2H-pyran-3-yl)azetidine-1-carbonyl)-5-oxooctahydro-1H-pyrrolo[1,2-a]azepin-6-yl)carbamoyl)benzo [b]thiophen-5-yl)methyl) phosphonic acid] | – | – | 1 to 10 | 3 to 30 |
| C[C@H]1COCCN1c1ccncc1C1CN(C(=O)[C@@H]2CC[C@@H]3CCC[C@H](NC(=O)c4cc5cc(CP(=O)(O)O)ccc5s4)C(=O)N32)C1 [Compound 679, ((2-(((3S,6S,9aS)-3-(3-(4-((S)-3-methylmorpholino)pyridin-3-yl)azetidine-1-carbonyl)-5-oxooctahydro-1H-pyrrolo[1,2-a]azepin-6-yl)carbamoyl)benzo [b]thiophen-5-yl)methyl) phosphonic acid] | – | – | < 0.1 | 3 to 30 |
| Cc1ccncc1C1CN(C(=O)[C@@H]2CC[C@@H]3CCCC[C@H](NC(=O)c4cc5cc(CP(=O)(O)O)ccc5s4)C(=O)N32)C1 [Compound 647, ((2-(((3S,6S,10aS)-3-(3-(4-methylpyridin-3-yl)azetidine-1-carbonyl)-5-oxodecahydropyrrolo [1,2-a]azocin-6-yl)carbamoyl)benzo [b]thiophen-5-yl)methyl) phosphonic acid] | – | – | 0.1 to 1 | 3 to 30 |
| COc1c(Cl)cncc1C1CN(C(=O)[C@@H]2CC[C@@H]3CCC[C@H](NC(=O)c4cc5cc(C(F)P(=O)(O)O)ccc5s4)C(=O)N32)C1 (stereo partly drawn) [Compound 682, ((2-(((3S,6S,9aS)-3-(3-(5-chloro-4-methoxypyridin-3-yl)azetidine-1-carbonyl)-5-oxooctahydro-1H-pyrrolo[1,2-a]azepin-6-yl)carbamoyl)benzo [b]thiophen-5-yl)fluoromethyl) phosphonic acid] | – | – | 0.1 to 1 | 3 to 30 |
| O=C(N[C@H]1CCC[C@H]2CC[C@@H](C(=O)N3CC(c4cnccc4OC(F)F)C3)N2C1=O)c1cc2cc(CP(=O)(O)O)ccc2s1 [Compound 632, ((2-(((3S,6S,9aS)-3-(3-(4-(difluoromethoxy)pyridin-3-yl)azetidine-1-carbonyl)-5-oxooctahydro-1H-pyrrolo[1,2-a]azepin-6-yl)carbamoyl)benzo [b]thiophen-5-yl)methyl) phosphonic acid] | – | – | 1 to 10 | 3 to 30 |
| Cc1ccncc1C1CN(C(=O)[C@@H]2CC[C@@H]3CCC[C@H](NC(=O)c4cc5cc([C@H](F)P(=O)(O)O)ccc5s4)C(=O)N32)C1 (single isomer, unassigned) [Compound 636] | – | – | < 0.1 | 3 to 30 |

More lines, now with the values ahead:

| IC50 [1, 3] [µM] | IC50 [2, 4] [µM] | IC50 [1, 5] [µM] | IC50 [2, 6] [µM] | SMILES |
| --- | --- | --- | --- | --- |
| – | – | 0.1 to 1 | 3 to 30 | CCOc1cc(C2CN(C(=O)[C@@H]3CC[C@@H]4CCC[C@H](NC(=O)c5cc6cc([C@@H](F)P(=O)(O)O)ccc6s5)C(=O)N43)C2)ccn1 (single isomer, unassigned) [Compound 709] |
| – | – | < 0.1 | 3 to 30 | COc1ccncc1C1CN(C(=O)[C@@H]2CC[C@@H]3CCC[C@H](NC(=O)c4cc5cc([C@@H](F)P(=O)(O)O)ccc5s4)C(=O)N32)C1 (single isomer, unassigned) [Compound 756] |
| – | – | < 0.1 | 3 to 30 | O=C(N[C@H]1CCC[C@H]2CC[C@@H](C(=O)N3CC(c4cnccc4Oc4ccccc4)C3)N2C1=O)c1cc2cc(C(F)P(=O)(O)O)ccc2s1 (stereo partly drawn) [Compound 699, (fluoro(2-(((3S,6S,9aS)-5-oxo-3-(3-(4-phenoxypyridin-3-yl)azetidine-1-carbonyl)octahydro-1H-pyrrolo[1,2-a]azepin-6-yl)carbamoyl)benzo [b]thiophen-5-yl)methyl) phosphonic acid] |
| – | – | 0.1 to 1 | 0.3 to 3 | N#CC1CN(C(=O)[C@@H]2CC[C@@H]3CCC[C@H](NC(=O)c4cc5cc(C(F)(F)P(=O)(O)O)ccc5s4)C(=O)N32)C1 [Compound 780, ((2-(((3S,6S,9aS)-3-(3-cyanoazetidine-1-carbonyl)-5-oxooctahydro-1H-pyrrolo[1,2-a]azepin-6-yl)carbamoyl)benzo [b]thiophen-5-yl)difluoromethyl) phosphonic acid] |
| – | – | 0.1 to 1 | 3 to 30 | Cc1ccnnc1C1CN(C(=O)[C@@H]2CC[C@@H]3CCC[C@H](NC(=O)c4cc5cc(C(F)(F)P(=O)(O)O)ccc5s4)C(=O)N32)C1 [Compound 818, (difluoro(2-(((3S,6S,9aS)-3-(3-(4-methylpyridazin-3-yl)azetidine-1-carbonyl)-5-oxooctahydro-1H-pyrrolo[1,2-a]azepin-6-yl)carbamoyl)benzo [b]thiophen-5-yl)methyl) phosphonic acid] |
| – | – | 1 to 10 | 0.3 to 3 | O=C(N[C@H]1CCCC[C@H]2CC[C@@H](C(=O)N3C[C@H](c4cc[nH]c(=O)c4)CC34CC4)N2C1=O)c1ccc2ccc(CP(=O)(O)O)cc2c1 [Compound 882, ((7-(((3S,6S,10aS)-5-oxo-3-((S)-6-(2-oxo-1,2-dihydropyridin-4-yl)-4-azaspiro[2.4]heptane-4-carbonyl)decahydropyrrolo[1,2-a]azocin-6-yl)carbamoyl)naphthalen-2-yl)methyl) phosphonic acid] |
| – | – | 0.1 to 1 | 0.3 to 3 | CC(NC(=O)[C@@H]1CC[C@@H]2CCCC[C@H](NC(=O)c3cc4cc(C(F)(F)P(=O)(O)O)ccc4s3)C(=O)N21)c1c[nH]c2ncccc12 (stereo partly drawn) [Compound 1113, ((2-(((3S,6S,10aS)-3-((1-(1H-pyrrolo[2,3-b]pyridin-3-yl)ethyl)carbamoyl)-5-oxodecahydropyrrolo[1,2-a]azocin-6-yl)carbamoyl)benzo[b]thiophen-5-yl)difluoromethyl)phosphonic acid] |
| – | – | < 0.1 | 3 to 30 | CN(C)c1c(F)cncc1C1CN(C(=O)[C@@H]2CC[C@@H]3CCC[C@H](NC(=O)c4cc5cc([C@H](F)P(=O)(O)O)ccc5s4)C(=O)N32)C1 (single isomer, unassigned) [Compound 685] |
| – | – | < 0.1 | 0.3 to 3 | O=C(N[C@H]1CCCC[C@H]2CC[C@@H](C(=O)N3CC(Oc4cccnc4)C3)N2C1=O)c1cc2cc(C(F)(F)P(=O)(O)O)ccc2s1 [Compound 724, (difluoro(2-(((3S,6S,10aS)-5-oxo-3-(3-(pyridin-3-yloxy)azetidine-1-carbonyl)decahydropyrrolo[1,2-a]azocin-6-yl)carbamoyl)benzo [b]thiophen-5-yl)methyl) phosphonic acid] |
| – | – | < 0.1 | 3 to 30 | COc1ccncc1C1CN(C(=O)[C@@H]2CC[C@@H]3C[C@@H](C)C[C@H](NC(=O)c4cc5cc([C@H](F)P(=O)(O)O)ccc5s4)C(=O)N32)C1 [Compound 749, ((R)-fluoro(2-(((3S,6S,8S,9aR)-3-(3-(4-methoxypyridin-3-yl)azetidine-1-carbonyl)-8-methyl-5-oxooctahydro-1H-pyrrolo[1,2-a]azepin-6-yl)carbamoyl)benzo [b]thiophen-5-yl)methyl) phosphonic acid] |
